Data from patent publication US9284272B2, “Inhibitors of histone methyltransferase G9a” (AbbVie Inc., priority 2014, dated 2016).
Several values for one entry are separate records, joined by “and”; a condition that tells them apart may be missing. Equal values may be shown once. Read-outs that look alike come from different tables or passages of the source.

Legend:
H3K9me2 [1] = assay: Cellular immunostaining (In-Cell Western), H3K9Me2 antibody immunofluorescence in PC3 cells; format: cell-based, human; conditions: for H3K9me2 % inhibition, single well of triplicate / inhibition at 0.03 µM / inhibition at 0.1 µM / inhibition at 0.3 µM / inhibition at 1 µM / inhibition at 3 µM: 72 hours; for inhibition at 0.03 µM / inhibition at 0.1 µM / inhibition at 0.3 µM / inhibition at 1 µM / inhibition at 3 µM: Homo sapiens, PC-3, 72 h
Description: For comparison, the known G9a inhibitor UNC0638 (see structure in FIG. 1) was evaluated in this study concurrently.
Human PC3 cells (ATCC, Manassas, Va.) were grown in RPMI+10% Fetal Bovine Serum and plated at 5,000 cells per well in a 96-well plate. The following day compounds and DMSO controls were added in triplicate at the indicated concentrations. Cells were fixed following incubation at 37° C. for 72 hours with 10% formaldehyde and then permeabilized with 0.1% Triton X-100. Cells were then washed with PBS and blocked with 0.1% BSA/PBS solution. Mouse anti-H3K9me2 (1:200, AbCam #1220, Cambridge, Mass.) and rabbit anti-Histone H3 (1:500, Cell Signaling Technology #4499, Danvers, Mass.) primary antibodies in 0.3% BSA were then added together to each well and incubated overnight at 4° C. The following day cells were washed in PBS-T (PBS with 0.1% Tween) followed by addition of anti-mouse (IR800) and anti-rabbit (IR700) secondary antibodies (LI-COR Biosciences, Lincoln, Nebr.) and incubated for one hour at room temperature. Cells were then washed with PBS-T followed by PBS and liquid was removed from all wells. The plate was scanned using both the 700 nm (anti-rabbit detection) and 800 nm (anti-mouse detection) channels on the Odyssey Imaging System (LI-COR Biosciences, Lincoln, Nebr.). Data was quantified using the LI-COR imaging suite and graphed as % inhibition H3K9me2/total H3/well compared to DMSO control wells. Wells treated in triplicate were averaged for each indicated concentration and error bars represent the standard deviation (n=3).

MV4;11 cells = assay: Combination of G9a inhibitor and ATRA on MV4;11 proliferation (CellTiter Glo); format: cell-based, human; conditions: 0, 300 nM or 3 μM Example 7 with 0-100 nM ATRA, 5 days
Description: Cellular proliferation was determined by CellTiter Glo assay.

[2] = test system: HL-60 acute promyelocytic cells; assay: Differentiation, proliferation, viability and cell cycle of HL-60 cells, 4 days; format: cell-based; conditions: 0-10 μM
Description: Cells were then fixed, stained with an anti-CD11b antibody and analyzed by flow cytometry (FIG. 6A).
Cell cycle analysis (PI staining) of HL-60 cells following the 4 day treatment at the indicated concentrations (i.e., 0 μM, 0.1 μM, 0.3 μM, 1 μM, 3 μM, and 10 μM) was also performed (FIG. 6C).

[3] = test system: human peripheral blood mononucleated cells (PBMCs); assay: Viability of PBMCs (Caspase-Glo 3/7, CellTiter Glo); format: cell-based; conditions: 0-10 uM, 48 h
Description: Following treatment, Caspase 3/7 activity (i.e., a marker of apoptosis) was assessed by the Caspase-Glo 3/7 assay system (FIG. 7A), and cell viability was assessed by CellTiter Glo assay (FIG. 7B).

H3K9me2 [4] = assay: PK/PD study, reduction in H3K9me2 in MV4;11 xenograft; format: in vivo, SCID/bg mice; conditions: for reduction in H3K9me2: 30 mg/kg/day osmotic mini-pump, relative to vehicle
From the text: (§1) Specifically, subcutaneous MV4;11 xenografts were implanted in SCID/bg mice and allowed to grow to 200 mm^3. […] In particular, by day 14, dimethylation of lysine 9 of histone H3 in the tumor tissue was reduced by 46 percent as compared to the vehicle.

[5] = PK/PD study, plasma and tissue concentrations; format: in vivo, SCID/bg mice; conditions: 30 mg/kg/day osmotic mini-pump, samples at 2, 7, 14 days
From the text: as §1

H3K9me2 [6] = assay: H3K9me2 levels by AlphaLISA in HT1080 cells; format: cell-based; conditions: 48 h, 0-1,000 nM
[7] = Cytotoxicity, CellTiter Glo; format: cell-based; conditions: human, MHH-65-1 cells, 7-day proliferation, neural crest derived lines
[8] = Cytotoxicity, CellTiter Glo; format: cell-based; conditions: human, CAPO-ES1 cells, 7-day proliferation, neural crest derived lines
[9] = Cytotoxicity, CellTiter Glo; format: cell-based; conditions: human, PA-1 cells, 7-day proliferation, neural crest derived lines
[10] = Cytotoxicity, CellTiter Glo; format: cell-based; conditions: human, ZR7350 cells, 7-day proliferation, neural crest derived lines
[11] = Cytotoxicity, CellTiter Glo; format: cell-based; conditions: human, US2OS cells, 7-day proliferation, neural crest derived lines
[12] = Cytotoxicity, CellTiter Glo; format: cell-based; conditions: human, DaoY cells, 7-day proliferation, neural crest derived lines
in vitro = format: cell-based; conditions: PH-1; 7-day proliferation, neural crest derived lines; read-out: IC50 cytotoxicity
[13] = Cytotoxicity, CellTiter Glo; format: cell-based; conditions: human, IMR-32 cells, 12-day proliferation, neural crest derived lines
[14] = Cytotoxicity, CellTiter Glo; format: cell-based; conditions: A-201 cells, 12-day proliferation, neural crest derived lines
[15] = Cytotoxicity, CellTiter Glo; format: cell-based; conditions: human, THP-1 cells, 5-day proliferation
[16] = Cytotoxicity, CellTiter Glo; format: cell-based; conditions: human, KMS12 cells, 5-day proliferation
[17] = Cytotoxicity, CellTiter Glo; format: cell-based; conditions: human, H929 cells, 5-day proliferation
[18] = Cytotoxicity, CellTiter Glo; format: cell-based; conditions: human, MV4;11 cells, 5-day proliferation
[19] = Cytotoxicity, CellTiter Glo; format: cell-based; conditions: human, 22RV1 cells, 5-day proliferation
[20] = Cytotoxicity, CellTiter Glo; format: cell-based; conditions: human, LN229 cells, 5-day proliferation
[21] = Cytotoxicity, CellTiter Glo; format: cell-based; conditions: human, LNCap cells, 5-day proliferation
[22] = Cytotoxicity, CellTiter Glo; format: cell-based; conditions: human, SKBR3 cells, 5-day proliferation

Question: For COc1cc2c(cc1OCCCN1CCCC1)N=C(N)C21CCC1 [Example 7, 5′-methoxy-6′-(3-(pyrrolidin-1-yl)propoxy)spiro[cyclobutane-1,3′-indol]-2′-amine], which “reduction of cellular levels of H3K9Me2” value (H3K9me2 [1]; 3 μM) is on record?
Answer: Its value is ~50%.

Question: And the “H3K9me2 % inhibition, single well of triplicate” value (shortened to “H3K9me2 % inhibition”) (H3K9me2 [1]; 0.03 uM)?
Answer: The value was 15.08% and 10.18%.

Question: And the “H3K9me2 % inhibition” value (H3K9me2 [1]; 0.1 uM)?
Answer: The value was 24.63% and 27.83%.

Question: And the “H3K9me2 % inhibition” value (H3K9me2 [1]; 0.3 uM)?
Answer: The value was 34.47% and 40.35%.

Question: What about the “H3K9me2 % inhibition” value (H3K9me2 [1]; 1 uM) of the same compound?
Answer: Its value is 43.83% and 45.11%.

Question: What about the “H3K9me2 % inhibition” value (H3K9me2 [1]; 3 uM) of the same compound?
Answer: The value was 47.77% and 48.92%.

Question: And the inhibition at 0.03 µM (H3K9me2 [1]; 0.03 uM, n=3, read-out: H3K9me2 % inhibition, average)?
Answer: Its inhibition at 0.03 µM is 12%.

Question: What about the inhibition at 0.03 µM (H3K9me2 [1]; 0.03 uM, read-out: H3K9me2 % inhibition, single well of triplicate) of the same compound?
Answer: The inhibition at 0.03 µM was 10.8%.

Question: And the inhibition at 0.1 µM (H3K9me2 [1]; 0.1 uM, n=3, read-out: H3K9me2 % inhibition, average)?
Answer: The inhibition at 0.1 µM was 24.3%.

Question: What about the inhibition at 0.1 µM (H3K9me2 [1]; 0.1 uM, read-out: H3K9me2 % inhibition, single well of triplicate) of the same compound?
Answer: Its inhibition at 0.1 µM is 20.6%.

Question: What about the inhibition at 0.3 µM (H3K9me2 [1]; 0.3 uM, n=3, read-out: H3K9me2 % inhibition, average) of the same compound?
Answer: The inhibition at 0.3 µM was 37.1%.

Question: And the inhibition at 0.3 µM (H3K9me2 [1]; 0.3 uM, read-out: H3K9me2 % inhibition, single well of triplicate)?
Answer: Its inhibition at 0.3 µM is 36.6%.

Question: And the inhibition at 1 µM (H3K9me2 [1]; 1 uM, n=3, read-out: H3K9me2 % inhibition, average)?
Answer: The inhibition at 1 µM was 44.4%.

Question: And the inhibition at 1 µM (H3K9me2 [1]; 1 uM, read-out: H3K9me2 % inhibition, single well of triplicate)?
Answer: The inhibition at 1 µM was 44.2%.

Question: What about the inhibition at 3 µM (H3K9me2 [1]; 3 uM, n=3, read-out: H3K9me2 % inhibition, average) of the same compound?
Answer: Its inhibition at 3 µM is 47.5%.

Question: And the inhibition at 3 µM (H3K9me2 [1]; 3 uM, read-out: H3K9me2 % inhibition, single well of triplicate)?
Answer: Its inhibition at 3 µM is 45.9%.

Question: And the “levels of total histone 3, H3K27Me3, H3K36Me2, H3K4me2, H3K4me3 and H3K9me3” value (H3K9me2 [1]; similar conditions)?
Answer: The value was “unaltered”.

Question: And the “cell viability as measured by total histone H3” value (H3K9me2 [1]; versus no treatment)?
Answer: The value was “No difference in cell viability”.

Question: What about the “MV4;11 proliferation, combination with ATRA” value (MV4;11 cells) of the same compound?
Answer: Its value is “additive effects on MV4;11 proliferation”.

Question: And the “cell cycle analysis (PI staining)” value [2]?
Answer: Its value is “increased numbers of cells were in the G1 phase”.

Question: What about the “cell proliferation (CellTiter Glo)” value [2] of the same compound?
Answer: Its value is “inhibited proliferation of the HL-60 cells”.

Question: What about the “cell viability (trypan blue exclusion)” value [2] of the same compound?
Answer: Its value is “largely unaffected”.

Question: What about the “differentiation (CD11b, flow cytometry)” value [2] of the same compound?
Answer: The value was “induced differentiation of the HL-60 cells”.

Question: What about the “effect on PBMC viability (Caspase 3/7 activity and CellTiter Glo)” value [3] of the same compound?
Answer: The value was “no effect on cell viability”.

Question: What about the “reduction in H3K9me2” value (H3K9me2 [4]; Day 2) of the same compound?
Answer: The value was 0%.

Question: What about the “reduction in H3K9me2” value (H3K9me2 [4]; Day 7) of the same compound?
Answer: Its value is 25%.

Question: And the “reduction in H3K9me2” value (H3K9me2 [4]; Day 14)?
Answer: Its value is 46%.

Question: What about the “reduction of dimethylation of lysine 9 of histone H3 in the tumor tissue” value (H3K9me2 [4]; day 14, compared to vehicle) of the same compound?
Answer: Its value is 46%.

Question: And the “accumulation in tumor tissue (as well as liver and muscle tissue)” value [5]?
Answer: Its value is “significant accumulation”.

Question: And the “H3K9me2 reduction compared with UNC0638” value (H3K9me2 [6])?
Answer: Its value is “equivalent effects on H3K9me2 reduction”.

Question: What about the IC50 at 7 day [7] of the same compound?
Answer: The IC50 at 7 day was > 10 µM.

Question: And the IC50 at 7 day [8]?
Answer: The IC50 at 7 day was > 10 µM.

Question: And the IC50 at 7 day [9]?
Answer: Its IC50 at 7 day is > 10 µM.

Question: And the IC50 at 7 day [10]?
Answer: The IC50 at 7 day was > 10 µM.

Question: What about the IC50 at 7 day [11] of the same compound?
Answer: The IC50 at 7 day was > 10 µM.

Question: And the IC50 at 7 day [12]?
Answer: Its IC50 at 7 day is > 10 µM.

Question: What about the IC50 at 7 day (in vitro) of the same compound?
Answer: The IC50 at 7 day was > 10 µM.

Question: What about the IC50 at 12 day [13] of the same compound?
Answer: The IC50 at 12 day was > 10 µM.

Question: What about the IC50 at 12 day [14] of the same compound?
Answer: Its IC50 at 12 day is > 10 µM.

Question: What about the IC50 at 5 day [15] of the same compound?
Answer: The IC50 at 5 day was > 10 µM.

Question: What about the IC50 at 5 day [16] of the same compound?
Answer: The IC50 at 5 day was > 10 µM.

Question: And the IC50 at 5 day [17]?
Answer: Its IC50 at 5 day is > 10 µM.

Question: What about the IC50 at 5 day [18] of the same compound?
Answer: Its IC50 at 5 day is > 10 µM.

Question: And the IC50 at 5 day [19]?
Answer: Its IC50 at 5 day is > 10 µM.

Question: What about the IC50 at 5 day [20] of the same compound?
Answer: Its IC50 at 5 day is > 10 µM.

Question: And the IC50 at 5 day [21]?
Answer: The IC50 at 5 day was > 10 µM.

Question: What about the IC50 at 5 day [22] of the same compound?
Answer: The IC50 at 5 day was > 10 µM.
